Source: patent US20130164347A1, “MULTILAYER POLYMERIC DRUG DELIVERY SYSTEM” (priority 2011, published 2013)

Experiments:
[1] = In-vitro release of bimatoprost from fully encapsulated multilayer polymeric films; assay type: physicochemical; conditions: for release profile of bimatoprost: PBS + 2 percent FBS, 37 degrees Celsius
Experimental: In Vitro release studies were performed using the fully encapsulated polymeric films (wherein the carrier discs are fully encapsulated within the surrounding barrier layers) containing bimatoprost as prepared in Example 6.

[2] = Thermal decomposition of bioactive agent; assay type: physicochemical
[3] = In-vitro release of 5-FU from partially encapsulated multilayer polymeric films
Experimental: In-Vitro release of 5-Fluoro-Uracil (5-FU) has been quantified over time from Partially Encapsulated Multilayer Polymeric films.
The resulting test articles, 2.5 mm diameter×1.25 mm high, were immersed in a PBS solution supplemented by 2 percent FBS onto a shaker in an incubator at 37 degrees Celsius. Release of 5-FU was quantified by HPLC-UV as follows: after filtration, aliquots were injected onto an Agilent 1100 column (50×4.6 mm×3 um with guard column). The 5-FU detection was performed via a UV Detector (Wavelength: 265 nm). The flow rate was 1.0 mL/min. The mobile phase was a mixture of TFA (0.1 percent) and Acetonitrile.

[4] = fully encapsulated film laminated at 140 degrees Fahrenheit (60 degrees Celsius)
[5] = partially encapsulated film, 30 percent w/w

Row | Compound | release profile of bimatoprost ([1]; fully encapsulated film laminated at 131 degrees Fahrenheit (55 degrees Celsius)) | period of no or undetectable release [1, 4] [days] | release profile of bimatoprost [1, 4] | drug released in the first 24 hours ([1]; monolayer 2 mm diameter carrier film compression molded at 152 degrees Fahrenheit (67 degrees Celsius)) [%] | decomposition temperature [2] [degrees Celsius] | release profile of 5-FU ([3]; fully encapsulated films with no adhesive layers) | burst duration [3, 5] [days] | rest period after burst [3, 5] | start of delayed sustained release [3, 5] [days] | release profile of 5-FU ([3]; partially encapsulated film, 30 percent w/w, 2.5 mm disk, PBS + 2 percent FBS, 37 degrees Celsius)
1 | CCNC(=O)CCC/C=C\C[C@@H]1[C@@H](/C=C/[C@@H](O)CCc2ccccc2)[C@H](O)C[C@@H]1O [bimatoprost] | zero-order release | 10 | delayed sustained release | 99 | 70 |  |  |  |  | 
2 | O=c1[nH]cc(F)c(=O)[nH]1 [5-FU, 5-Fluoro-Uracil] |  |  |  |  |  | delayed sustained release | 2 | approximately 9 days | ~11 | bimodal release profile
